“Also recorded” adds a separate entry of the source. Each block holds one compound with its values, some of them ahead of it.
How the values were obtained:
[1] = test system: α1-antitrypsin Z variant (ATZ); test: Steady state levels of ATZ in HTO/Z cell line (immunoblot); activity of G2 analogs; type: cell-based, human; settings: for Activity: G2 and G2 analogs, positive activity if shown to have any activity, not quantified; for effect on cellular ATZ levels: 48 hrs incubation, immunoblot, FIG. 8 / FIG. 14; for IC50: TABLE 1, assay not given
Procedure: For experiments with G2 analogs, Tet-off inducible cell lines were cultured in absence of doxycycline for at least 12 days to ensure expression of […] or its variants. The cells were then sub-cultured into separate monolayers in fresh complete growth medium and incubated for 48 hours in the absence or presence of G2 analog. […] All compounds available commercially were purchased except for G2-22, which was synthesized with routine chemistry.
Cells were lysed in NP40 buffer and then separated into insoluble and soluble fractions according to a previously established technique. Samples were subjected to immunoblot analysis for AT and GAPDH. For immmunoblot analysis to detect AT or GAPDH, cells were lysed in 50 mM Tris-HCl, 150 mM NaCl, 1% NP-40, pH 8.0. Protein concentrations were determined by BCA protein assay (Pierce Biotechnology, Rockford, IL). […] The membranes were blocked in 5% milk and then incubated overnight at 4° C. with primary antibody for AT (1:1000, Diasorin), LC3 (1:2000, Sigma), p62 (1:1000, Cell signaling, Danvers, MA), ATG5 (1:1000, Cell signaling), mTOR substrate sampler (1:1000 for all antibodies, Cell signaling). Donkey anti-goat Ig (Jackson Labs, Bar Harbor, ME), goat anti-rabbit lg (1:50,000), or goat anti-mouse Ig (1:50,000) were used as secondary antibodies in TBST at RT, 1 hour. Blots were visualized with ECL or West Femto from Pierce. Membranes were re-probed with GAPDH (1:5000, Sigma) as loading control. Insoluble samples were stained with Gel Code Blue as loading control.

PiZ mouse model of ATD = test: PiZ mouse model of ATD, oral gavage; type: in vivo; settings: for hepatic / liver fibrosis (Sirius Red staining): G2-19: 3 weeks of treatment vs placebo
Procedure: The PiZ mouse model has been described previously (Hidvegi 2010 Science 329 (5988): 229-232). For experiments involving drug administration in mice in vivo, doses of 5-50 mg/kg/day for the G2 analog were given for 3 weeks, and then liver histological and biochemical characteristics were assessed exactly as previously described (Hidvegi 2005J Biol Chem 280 (47): 39002-39015). Each experimental group contained 4-6 four- to six-month old male mice randomly chosen from littermates. G2 analogs were delivered by oral gavage. Control mice were littermates given DMSO by gavage. The outcome was determined by evaluating 1) the hepatic ATZ load by immunoblotting with anti-AT, immunostaining with PAS/D; 2) hepatic fibrosis using Sirius Red staining; 3) autophagy by immunoblotting with anti-LC3 and anti-p62, and imaging for GFP+autophagosomes; 4) monitoring blood glucose levels by glucometer and blood insulin levels by ELISA Wide Range Assay (CrystalChem). For immunostaining, liver samples were fixed in 10% Formalin, followed by staining with PAS after diastase and Sirius Red using standard techniques. Quantitative evaluation of immunostaining and histochemical staining was carried out by a member of the team that was blinded to group allocation. Blood glucose and insulin levels were quantified as previously described (Wang 2019 PLOS One 14: e0209748).
For immunoblot analysis of proteins in liver, the liver was snap frozen in liquid nitrogen and stored at −80° C. Liver was homogenized in 50 mM Tris-HCl pH 8.0, 150 mM NaCl, 2 mM KCl, 2 mM MgCl2, 0.5% Triton X-100, 0.5% deoxycholic acid containing 0.1 mM […] and Complete protease inhibitor cocktail from Roche. Total protein concentration was measured by BCA assay (Pierce) and followed by western blotting as described previously.

misfolded ATZ = settings: mammalian cell models of ATD; previously shown; cited from earlier work
[2] = test system: C. elegans model of ATD (sGFP::ATZ); test: Quantification of ATZ accumulation in C. elegans model of ATD (Z worm); type: in vivo; settings: 24 h incubation, FIG. 9
Procedure: The C. elegans strain VK1882 (vkls1882 [nhx-2p::sGFP::ATZ; myo-2p::mCherry) was routinely cultured at 20° C. on nematode growth medium plates seeded with E. coli strain OP50. Quantitative analysis of ATZ accumulation was carried out by detection of fluorescence using the Thermofisher CellInsight CX-7 high content imager as previously described. L4 stage animals were placed into wells of 384-well plates (30 per well) containing G2 analogs or an equivalent volume of DMSO. Following incubation at 20° C. for 24 hours, sodium azide was added to a final concentration of […] to anesthetize the animals and then each well was imaged on the CX-7 high content imager for quantification.

[3] = test system: striatal neurons from Huntington's patient GM 04198; test: Cell death (SytoX assay) in striatal neurons from Huntington's patient; type: cell-based, human
Procedure: (§1) Striatal neurons from Huntington's patient GM 04198 and control 2171WT were prepared as previously described. Cells, at 24 days after induction, were incubated with G2 analog or an equivalent volume of DMSO for 14 days (drug/DMSO added with medium change every 4 days) and then cell death was determined by SytoX assay as previously described.

[4] = test system: striatal neurons from control 2171WT; test: Cell death (SytoX assay) in striatal neurons from control individual; type: cell-based, human; settings: doses of 5 and 10 μM; data not shown
Procedure: as §1

[5] = test system: HTT inclusion bodies (IBs) in HD-MSNs; test: HTT inclusion bodies / mHTT aggregation in HD-MSNs; type: cell-based, human
Procedure: Adult dermal fibroblasts from symptomatic HD patients (Coriell NINDS and NIGMS Repositories: ND33947, ND30013, GM02173, GM04230, GM04198, GM02147), presymptomatic HD patients (GM04717, GM04861, GM04855, GM04831, GM04857, GM04829), and healthy controls (GM02171) were acquired from the Coriell Institute for Medical Research. The lentiviral cocktail of rtTA, pTight-9-124-BclxL, CTIP2, MYT1L, DLX1, and DLX2 was added to human fibroblasts for 16 h, then cells were washed and fed with fibroblasts media containing 1 μg/mL doxycycline (DOX). Briefly, transduced fibroblasts were maintained in fibroblasts media for two days with doxycycline before selection with Puromycin ([…]) on day 3, then were plated onto poly-ornithine, fibronectin, and laminin-coated coverslips on day 5. Cells were subsequently maintained in NeurobasalA (Gibco) media containing B-27 plus supplement and GlutaMAX supplemented with valproic acid (1 mM), dibutyryl cAMP ([…]), BDNF (10 ng/ml), NT-3 (10 ng/ml), and RA ([…]) until day 13. […]
Reprogramming cells were fixed with 4% paraformaldehyde (Electron Microscopy Sciences, #15710) for 20 min at room temperature (RT), and then permeabilized with 0.2% Triton X-100 for 10 min at RT. […] Images were captured using a Leica SP5X white light laser confocal system with Leica Application Suite (LAS) Advanced Fluorescence 2.7.3.9723.

HD-MSNs [6] = test: Autophagy measurement in HD-MSNs (p62 immunoblot, CYTO-ID green); type: cell-based, human; settings: 0.5 μM vs DMSO
Procedure: To test whether the differentially expressed genetic pathways between pre-HD-MSNs and HD-MSNs would be reflected at the cellular level, whether the autophagy activity would be different between pre-HD- and HD-MSNs was assessed. CYTO-ID assay, a fluorescence-based live-cell assay for accumulated autophagic vacuoles was performed as well as immunoblot for p62/SQSTM1 expression, a marker used to monitor autophagic activity due to its binding to LC3 and degradation by autophagy.
(§2) Adult dermal fibroblasts from symptomatic HD patients (Coriell NINDS and NIGMS Repositories: ND33947, ND30013, GM02173, GM04230, GM04198, GM02147), presymptomatic HD patients (GM04717, GM04861, GM04855, GM04831, GM04857, GM04829), and healthy controls (GM02171) were acquired from the Coriell Institute for Medical Research. The lentiviral cocktail of rtTA, pTight-9-124-BclxL, CTIP2, MYT1L, DLX1, and DLX2 was added to human fibroblasts for 16 h, then cells were washed and fed with fibroblasts media containing 1 μg/mL doxycycline (DOX). […]
Cells were lysed in a 2% SDS buffer. The concentrations of whole-cell lysates were measured using the Pierce BCA protein assay kit (Thermo Scientific, #23227). […]

HD-MSNs [7] = test: Neuronal cell death assay in HD-MSNs (SYTOX, Caspase-3/7, Annexin V); type: cell-based, human
Procedure: as §2
0.1 μM SYTOX gene nucleic acid stain (Invitrogen, S7020) and 1 μl/mL of Hoeschst 33342 (Thermo Scientific, 66249) were added into cell medium. […] Images were taken using Leica DMI 4000B inverted microscope with Leica Application Suite (LAS) Advanced Fluorescence.
Cells were treated with 1× Essen Bioscience IncuCyte® Caspase-3/7 Green Reagent (final concentration 5 µM) and 1× Essen Bioscience IncuCyte® Annexin V Green or Red Reagent on day 22 or 26. […] Images were analyzed for the number of green or red objects per well. For the apoptotic index, the number of green or red objects (i.n., fluorescence cells) divided by phase area (μm2) per well was quantified by the IncuCyte® S3 Live-Cell Analysis System.

[8] = test system: α1-antitrypsin Z variant (ATZ); test: Steady state levels of ATZ in HTO/Z cell line (immunoblot); activity of G2 analogs; type: cell-based, human; settings: 24 hr treatment, 0.5 and 2.5 μM, FIG. 22C
[9] = PiZ mouse, marker of autophagic activity

Structure (SMILES): COc1ccc(Cl)cc1C(N)=O [G2, 5-chloro-2-methoxybenzamide]
Activity [1]: Active
hepatic ATZ load (PiZ mouse model of ATD; PiZ mouse): significant reduction of hepatic ATZ load
insulin secretion (PiZ mouse model of ATD; PiZ mouse): without affecting insulin secretion
LC3-II conversion in the liver (PiZ mouse model of ATD; [9]): increased LC3-II conversion
p62 levels in the liver (PiZ mouse model of ATD; [9]): decreased p62 levels
hepatic / liver fibrosis (Sirius Red staining) (PiZ mouse model of ATD; PiZ mouse): significant reduction
liver damage (PiZ mouse model of ATD; mouse model of ATD): reverse liver damage
autophagic degradation of misfolded ATZ (misfolded ATZ): promoted autophagic degradation

Structure (SMILES): Cn1ccc2cc(Cl)ccc2c1=O [G2-19, 6-chloro-2-methylisoquinolin-1(2H)-one]
effect on cellular ATZ levels [1]: reduces ATZ levels in a dose-dependent manner; also recorded: more potent than G2-3
Activity [1]: Active (Highly Active)
reduction of ATZ levels ([1]; dose of 5 μM, 48 hrs, FIG. 8): 60%
effect on ATZ levels in intestinal cells of the ATZ worm ([2]; GFP/RFP fluorescence): dose-dependent decrease in ATZ levels; also recorded: not as potent as positive control prochlorperazine (PCP)
reduction in ATZ levels (fluorescence) ([2]; at 40 µM): ~50%
hepatic ATZ load (PiZ mouse model of ATD; PiZ mouse): reduced hepatic ATZ load
insulin secretion (PiZ mouse model of ATD; PiZ mouse): without affecting insulin secretion
hepatic / liver fibrosis (Sirius Red staining) (PiZ mouse model of ATD; PiZ mouse): marked and statistically significant decrease
cell death (percent SYTOX positive cells) ([3]; FIG. 11, dose-dependent between 0.5 and 10 μM, 14 days): reduces cell death
neuronal death (percent SYTOX positive cells) ([3]; second experiment, FIG. 12, doses of 5 and 10 μM): reduced neuronal death
neuronal death (percent SYTOX positive cells) [4]: no effect
HTT inclusion body (IB) ([5]; HD-MSNs, compared to the inactive form, FIG. 13): lowers HTT inclusion body (IB)

Structure (SMILES): O=c1ccc2c(Cl)cc(Cl)cc2[nH]1 [G2-115, 5,7-dichloroquinolin-2(1H)-one]
Activity [1]: Active
IC50 [1]: 0.1 to 1 µM
mHTT aggregation ([5]; HD-MSNs from three patients, 0.5 μM vs DMSO, PID30, FIG. 18K): significantly lower levels of mHTT aggregation
p62/SQSTM1 protein levels (immunoblot) (HD-MSNs [6]; PID26, FIG. 18F): decrease in p62/SQSTM1 protein levels
CYTO-ID signal (autophagic vacuoles) (HD-MSNs [6]; PID 26, FIG. 18G): increase in CYTO-ID signal
MSN death by Caspase 3/7 activation and Annexin V signals (HD-MSNs [7]; HD.40-MSNs three concentrations PID 30 (FIG. 18I), three patients 0.5 μM (FIG. 18J)): significant reduction in MSN death in a dose-dependent manner
MSN death measured by SYTOX (HD-MSNs [7]; HD.44-MSNs, 0.125, 0.25, or 0.5 µM, PID 35, FIG. 18H): significant reduction in MSN death in a dose-dependent manner
steady-state levels of ATZ [8]: decreased the steady-state levels of ATZ

IC50 [1]: 1 to 10 µM
Structure (SMILES): O=c1ccc2c(Cl)cc(-c3ccccc3)cc2[nH]1 [G2-233, 5-chloro-7-phenylquinolin-2(1H)-one]
Activity [1]: Active

IC50 [1]: 1 to 10 µM
Structure (SMILES): O=c1ccc2c(Cl)cc(N3CCCCC3)cc2[nH]1 [G2-235, 5-chloro-7-(piperidin-1-yl)quinolin-2(1H)-one]
Activity [1]: Active

IC50 [1]: 0.1 to 1 µM
Structure (SMILES): O=C(c1cc(Cl)c2ccc(=O)[nH]c2c1)N1CCCCC1 [G2-237, 5-chloro-7-(piperidine-1-carbonyl)quinolin-2(1H)-one]
effect on cellular ATZ levels [1]: reduce ATZ levels in a dose-dependent manner
Activity [1]: Active

IC50 [1]: 1 to 10 µM
Structure (SMILES): CCCCCCOc1cc(Cl)c2ccc(=O)[nH]c2c1 [G-211, 5-chloro-7-(hexyloxy)quinolin-2(1H)-one]
Activity [1]: Active
